Our source for the remaining activity values is patent US20240246942A1, “KINASE INHIBITORS FOR THE TREATMENT OF NEURODEGENERATIVE DISEASES” (priority 2020, published 2024).

Holding throughout (experiment): biochemical
For assay [1], the target named is T1, panel of 374 wild-type kinases (Homo sapiens, UniProt P53671).
T1 construct: purchased Reaction Biology Corporation
Conditions: read-out: % Enzyme Activity (relative to DMSO controls), LIMK2.

The target in assay [2] is T2, panel of 374 wild-type kinases (Homo sapiens, UniProt Q04771).
T2 construct: purchased Reaction Biology Corporation
T2 sequence (Q04771 21-509): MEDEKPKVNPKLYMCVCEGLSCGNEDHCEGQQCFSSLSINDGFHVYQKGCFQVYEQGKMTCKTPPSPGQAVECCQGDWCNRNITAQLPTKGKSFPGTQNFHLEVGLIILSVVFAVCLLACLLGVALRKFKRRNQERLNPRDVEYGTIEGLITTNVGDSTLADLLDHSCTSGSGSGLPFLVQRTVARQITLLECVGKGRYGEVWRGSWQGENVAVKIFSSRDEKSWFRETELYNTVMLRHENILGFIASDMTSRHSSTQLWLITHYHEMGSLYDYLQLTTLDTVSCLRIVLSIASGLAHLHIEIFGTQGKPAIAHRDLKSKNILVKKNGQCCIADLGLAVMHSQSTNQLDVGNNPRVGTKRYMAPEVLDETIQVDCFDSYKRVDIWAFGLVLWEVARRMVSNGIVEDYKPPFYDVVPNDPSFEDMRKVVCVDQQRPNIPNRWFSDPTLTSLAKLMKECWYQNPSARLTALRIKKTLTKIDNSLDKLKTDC
The note with it: read-out: % Enzyme Activity (relative to DMSO controls), ALK2/ACVR1.

Assay [3] concerns the target T3, panel of 374 wild-type kinases (Homo sapiens, UniProt Q08345).
T3 construct: purchased Reaction Biology Corporation
Conditions: read-out: % Enzyme Activity (relative to DMSO controls), DDR1.

For assay [4], the target named is T4, panel of 374 wild-type kinases (Homo sapiens, UniProt Q08881).
T4 construct: purchased Reaction Biology Corporation
T4 sequence (Q08881 1-620): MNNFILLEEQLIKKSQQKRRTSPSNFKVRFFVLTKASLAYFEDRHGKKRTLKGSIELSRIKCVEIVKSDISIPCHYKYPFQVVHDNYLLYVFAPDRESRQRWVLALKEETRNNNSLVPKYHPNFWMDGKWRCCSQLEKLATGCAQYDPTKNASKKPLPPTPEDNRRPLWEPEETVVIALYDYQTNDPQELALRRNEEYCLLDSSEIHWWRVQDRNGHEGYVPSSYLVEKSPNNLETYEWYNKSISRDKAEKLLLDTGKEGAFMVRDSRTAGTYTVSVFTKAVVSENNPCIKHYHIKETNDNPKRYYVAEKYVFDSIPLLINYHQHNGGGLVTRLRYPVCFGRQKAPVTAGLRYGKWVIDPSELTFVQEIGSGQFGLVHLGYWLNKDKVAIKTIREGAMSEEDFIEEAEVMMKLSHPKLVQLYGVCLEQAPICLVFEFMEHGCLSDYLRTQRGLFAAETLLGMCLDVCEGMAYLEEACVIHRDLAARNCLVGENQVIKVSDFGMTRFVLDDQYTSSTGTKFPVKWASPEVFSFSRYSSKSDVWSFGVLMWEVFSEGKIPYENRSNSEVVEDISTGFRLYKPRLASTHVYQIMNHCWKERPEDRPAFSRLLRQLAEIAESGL
The note with it: read-out: % Enzyme Activity (relative to DMSO controls), ITK.

For assay [5], the target named is T5, panel of 374 wild-type kinases (Homo sapiens, UniProt Q15831).
T5 construct: purchased Reaction Biology Corporation
T5 sequence (Q15831 1-433): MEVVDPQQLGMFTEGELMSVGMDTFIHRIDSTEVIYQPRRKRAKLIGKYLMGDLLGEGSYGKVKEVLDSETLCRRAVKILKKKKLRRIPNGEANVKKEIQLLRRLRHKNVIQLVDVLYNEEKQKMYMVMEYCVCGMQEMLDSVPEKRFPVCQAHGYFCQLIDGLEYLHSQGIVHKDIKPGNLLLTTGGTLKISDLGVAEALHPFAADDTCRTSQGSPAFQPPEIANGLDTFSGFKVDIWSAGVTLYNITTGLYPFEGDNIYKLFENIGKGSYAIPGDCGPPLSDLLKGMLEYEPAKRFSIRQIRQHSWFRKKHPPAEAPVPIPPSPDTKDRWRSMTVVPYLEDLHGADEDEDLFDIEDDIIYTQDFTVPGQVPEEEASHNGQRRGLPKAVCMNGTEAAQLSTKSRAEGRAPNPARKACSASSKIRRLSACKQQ
Conditions: read-out: % Enzyme Activity (relative to DMSO controls), LKB1.

Assay [6] addresses T6, panel of 374 wild-type kinases (Homo sapiens, UniProt Q6IQ55).
T6 construct: purchased Reaction Biology Corporation
The note with it: read-out: % Enzyme Activity (relative to DMSO controls), kinase TTBK2.

Assay [7] has as its target T7, panel of 374 wild-type kinases (Homo sapiens, UniProt Q9BYP7).
T7 construct: purchased Reaction Biology Corporation
The note with it: read-out: % Enzyme Activity (relative to DMSO controls), kinase WNK3.

Assay [8] deals with T8, panel of 374 wild-type kinases (Homo sapiens, UniProt Q9NR20).
T8 construct: purchased Reaction Biology Corporation
T8 sequence (Q9NR20 1-520): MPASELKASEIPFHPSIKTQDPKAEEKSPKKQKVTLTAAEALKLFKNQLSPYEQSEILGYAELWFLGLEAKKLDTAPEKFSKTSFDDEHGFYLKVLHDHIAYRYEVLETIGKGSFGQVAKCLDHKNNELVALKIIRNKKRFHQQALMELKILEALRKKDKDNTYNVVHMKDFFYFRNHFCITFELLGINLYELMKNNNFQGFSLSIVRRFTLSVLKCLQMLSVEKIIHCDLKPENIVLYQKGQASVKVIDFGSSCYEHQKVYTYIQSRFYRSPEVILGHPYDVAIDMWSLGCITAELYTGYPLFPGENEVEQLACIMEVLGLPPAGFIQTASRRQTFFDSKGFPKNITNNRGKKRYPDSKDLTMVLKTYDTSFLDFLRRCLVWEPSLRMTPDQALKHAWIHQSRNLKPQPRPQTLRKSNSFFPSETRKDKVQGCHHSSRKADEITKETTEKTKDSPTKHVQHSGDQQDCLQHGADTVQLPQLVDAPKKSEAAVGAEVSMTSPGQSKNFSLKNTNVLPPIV
The note with it: read-out: % Enzyme Activity (relative to DMSO controls), DYRK4.

In assay [9] the target is T9, panel of 374 wild-type kinases (Homo sapiens, UniProt Q9UQM7).
T9 construct: purchased Reaction Biology Corporation
T9 sequence (Q9UQM7 whole entry): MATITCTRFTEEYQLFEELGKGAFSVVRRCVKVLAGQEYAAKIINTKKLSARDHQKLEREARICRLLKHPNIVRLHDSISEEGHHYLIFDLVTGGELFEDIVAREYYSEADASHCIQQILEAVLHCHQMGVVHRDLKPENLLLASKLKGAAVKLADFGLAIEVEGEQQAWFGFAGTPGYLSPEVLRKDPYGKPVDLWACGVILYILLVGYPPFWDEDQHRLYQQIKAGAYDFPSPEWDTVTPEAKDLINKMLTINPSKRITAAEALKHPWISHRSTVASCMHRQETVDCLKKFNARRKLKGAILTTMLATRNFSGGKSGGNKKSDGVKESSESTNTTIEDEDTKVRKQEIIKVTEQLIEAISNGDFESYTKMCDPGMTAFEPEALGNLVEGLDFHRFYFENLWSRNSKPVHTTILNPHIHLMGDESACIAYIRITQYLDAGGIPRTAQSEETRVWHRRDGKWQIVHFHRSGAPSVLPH
The note with it: read-out: % Enzyme Activity (relative to DMSO controls), CAMK2a.

Assay [10] has as its target T10, panel of 374 wild-type kinases (Homo sapiens, UniProt Q9Y3S1).
T10 construct: purchased Reaction Biology Corporation
The note with it: read-out: % Enzyme Activity (relative to DMSO controls), kinase WNK2.

T10 sequence (Q9Y3S1 whole entry): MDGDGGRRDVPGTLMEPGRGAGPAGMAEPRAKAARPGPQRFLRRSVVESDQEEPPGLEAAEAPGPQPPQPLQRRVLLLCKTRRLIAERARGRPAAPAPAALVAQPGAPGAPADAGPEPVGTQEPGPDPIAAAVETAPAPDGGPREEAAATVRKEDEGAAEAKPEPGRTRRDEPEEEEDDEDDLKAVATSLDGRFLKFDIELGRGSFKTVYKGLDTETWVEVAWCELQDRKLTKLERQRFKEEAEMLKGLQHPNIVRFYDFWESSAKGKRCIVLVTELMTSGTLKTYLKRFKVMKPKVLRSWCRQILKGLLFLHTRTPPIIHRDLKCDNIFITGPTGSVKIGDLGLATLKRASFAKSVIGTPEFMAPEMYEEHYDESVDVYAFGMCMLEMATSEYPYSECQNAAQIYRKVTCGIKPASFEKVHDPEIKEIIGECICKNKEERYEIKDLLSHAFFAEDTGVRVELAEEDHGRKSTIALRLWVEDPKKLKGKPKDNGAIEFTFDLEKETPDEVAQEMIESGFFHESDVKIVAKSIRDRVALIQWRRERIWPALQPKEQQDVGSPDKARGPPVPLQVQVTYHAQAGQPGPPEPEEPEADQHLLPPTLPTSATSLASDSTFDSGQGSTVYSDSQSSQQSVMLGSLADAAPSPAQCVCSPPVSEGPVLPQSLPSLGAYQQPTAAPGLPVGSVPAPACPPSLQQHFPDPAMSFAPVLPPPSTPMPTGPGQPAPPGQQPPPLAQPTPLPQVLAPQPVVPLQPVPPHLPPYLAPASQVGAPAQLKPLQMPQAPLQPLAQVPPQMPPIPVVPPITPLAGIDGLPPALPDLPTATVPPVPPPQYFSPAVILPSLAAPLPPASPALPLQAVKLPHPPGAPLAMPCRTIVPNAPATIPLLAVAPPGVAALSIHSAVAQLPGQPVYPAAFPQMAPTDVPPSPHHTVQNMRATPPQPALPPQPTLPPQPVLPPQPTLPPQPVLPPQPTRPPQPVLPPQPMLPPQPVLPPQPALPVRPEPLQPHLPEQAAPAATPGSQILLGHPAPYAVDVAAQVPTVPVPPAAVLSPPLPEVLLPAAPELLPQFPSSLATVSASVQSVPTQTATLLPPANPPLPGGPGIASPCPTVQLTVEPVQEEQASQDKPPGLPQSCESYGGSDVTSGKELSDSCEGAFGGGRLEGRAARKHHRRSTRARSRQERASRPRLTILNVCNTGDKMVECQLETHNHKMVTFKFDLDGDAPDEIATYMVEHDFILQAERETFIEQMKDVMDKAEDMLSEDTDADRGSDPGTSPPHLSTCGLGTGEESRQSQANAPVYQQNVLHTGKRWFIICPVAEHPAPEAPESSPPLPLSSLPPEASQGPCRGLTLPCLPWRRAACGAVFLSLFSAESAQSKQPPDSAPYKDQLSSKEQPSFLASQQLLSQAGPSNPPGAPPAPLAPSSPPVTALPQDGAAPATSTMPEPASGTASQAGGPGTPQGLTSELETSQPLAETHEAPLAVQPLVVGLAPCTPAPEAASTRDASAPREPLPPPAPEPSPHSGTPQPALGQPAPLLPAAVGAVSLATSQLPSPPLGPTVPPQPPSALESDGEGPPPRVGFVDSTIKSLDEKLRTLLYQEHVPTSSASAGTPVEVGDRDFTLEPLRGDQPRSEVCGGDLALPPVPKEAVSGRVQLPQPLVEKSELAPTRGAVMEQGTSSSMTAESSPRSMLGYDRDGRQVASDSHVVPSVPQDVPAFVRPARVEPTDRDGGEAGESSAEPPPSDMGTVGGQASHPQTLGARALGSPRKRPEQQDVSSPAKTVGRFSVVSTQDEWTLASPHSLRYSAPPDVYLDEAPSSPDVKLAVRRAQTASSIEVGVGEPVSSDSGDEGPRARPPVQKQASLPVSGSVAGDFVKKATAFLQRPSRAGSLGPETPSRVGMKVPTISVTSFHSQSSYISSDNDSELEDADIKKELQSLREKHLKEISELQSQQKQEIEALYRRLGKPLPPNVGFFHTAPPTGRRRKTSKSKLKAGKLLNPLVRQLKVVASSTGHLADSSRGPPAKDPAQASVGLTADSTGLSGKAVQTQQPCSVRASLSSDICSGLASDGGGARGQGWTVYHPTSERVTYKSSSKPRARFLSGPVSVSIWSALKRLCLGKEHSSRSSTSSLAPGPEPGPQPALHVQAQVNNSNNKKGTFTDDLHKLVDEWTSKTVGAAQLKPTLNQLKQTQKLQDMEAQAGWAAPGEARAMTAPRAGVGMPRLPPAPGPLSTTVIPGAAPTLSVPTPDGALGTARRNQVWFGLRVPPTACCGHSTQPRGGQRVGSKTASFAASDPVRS
T1 sequence (P53671 whole entry): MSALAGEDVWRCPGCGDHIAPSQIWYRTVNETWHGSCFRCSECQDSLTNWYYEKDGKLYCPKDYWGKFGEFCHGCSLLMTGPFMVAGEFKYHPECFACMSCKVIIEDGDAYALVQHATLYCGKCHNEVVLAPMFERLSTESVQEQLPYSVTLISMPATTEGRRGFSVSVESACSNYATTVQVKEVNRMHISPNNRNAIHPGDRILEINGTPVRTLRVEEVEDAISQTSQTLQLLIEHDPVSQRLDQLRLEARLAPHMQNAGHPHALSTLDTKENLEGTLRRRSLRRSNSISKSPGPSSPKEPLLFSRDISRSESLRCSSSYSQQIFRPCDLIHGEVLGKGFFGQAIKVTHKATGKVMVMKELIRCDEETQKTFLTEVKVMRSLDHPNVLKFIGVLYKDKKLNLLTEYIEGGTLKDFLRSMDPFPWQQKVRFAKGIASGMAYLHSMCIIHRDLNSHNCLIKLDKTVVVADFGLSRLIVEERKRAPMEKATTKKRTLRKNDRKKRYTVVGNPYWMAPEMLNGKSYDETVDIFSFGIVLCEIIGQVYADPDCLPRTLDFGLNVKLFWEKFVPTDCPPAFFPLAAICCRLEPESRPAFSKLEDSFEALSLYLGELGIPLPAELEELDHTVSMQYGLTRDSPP
T6 sequence (Q6IQ55 whole entry): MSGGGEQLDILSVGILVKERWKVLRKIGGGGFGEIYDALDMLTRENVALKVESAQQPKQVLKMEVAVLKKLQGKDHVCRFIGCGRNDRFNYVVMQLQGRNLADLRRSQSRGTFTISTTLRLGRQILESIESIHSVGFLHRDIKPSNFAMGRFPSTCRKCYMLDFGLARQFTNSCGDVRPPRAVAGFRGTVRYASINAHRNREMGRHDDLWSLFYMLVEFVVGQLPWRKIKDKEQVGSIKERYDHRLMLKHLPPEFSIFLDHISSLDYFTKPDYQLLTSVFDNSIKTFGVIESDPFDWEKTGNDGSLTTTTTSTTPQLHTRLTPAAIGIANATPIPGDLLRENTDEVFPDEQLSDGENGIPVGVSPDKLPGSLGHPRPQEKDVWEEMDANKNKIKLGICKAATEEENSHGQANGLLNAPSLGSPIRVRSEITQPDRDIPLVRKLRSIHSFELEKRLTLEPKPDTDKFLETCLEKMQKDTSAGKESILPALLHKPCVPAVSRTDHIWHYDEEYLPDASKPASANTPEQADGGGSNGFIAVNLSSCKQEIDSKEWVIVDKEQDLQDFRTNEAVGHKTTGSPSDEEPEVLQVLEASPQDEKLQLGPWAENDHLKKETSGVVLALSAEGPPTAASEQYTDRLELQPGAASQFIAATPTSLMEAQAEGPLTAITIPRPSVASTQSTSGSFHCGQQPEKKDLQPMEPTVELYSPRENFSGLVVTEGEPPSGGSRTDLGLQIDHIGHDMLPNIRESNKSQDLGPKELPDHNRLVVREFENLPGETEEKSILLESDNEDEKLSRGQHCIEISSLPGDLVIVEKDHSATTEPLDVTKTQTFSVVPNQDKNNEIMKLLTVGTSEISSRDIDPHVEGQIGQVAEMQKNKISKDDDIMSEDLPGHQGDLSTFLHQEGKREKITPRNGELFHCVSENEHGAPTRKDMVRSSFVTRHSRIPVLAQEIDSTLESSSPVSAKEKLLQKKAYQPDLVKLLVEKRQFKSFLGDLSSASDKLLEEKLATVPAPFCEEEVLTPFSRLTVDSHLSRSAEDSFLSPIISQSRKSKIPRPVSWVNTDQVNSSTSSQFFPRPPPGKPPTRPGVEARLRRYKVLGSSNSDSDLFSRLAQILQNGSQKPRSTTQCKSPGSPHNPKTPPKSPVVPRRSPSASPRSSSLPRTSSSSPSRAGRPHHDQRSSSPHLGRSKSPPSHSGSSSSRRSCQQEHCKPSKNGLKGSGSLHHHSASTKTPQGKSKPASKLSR

Consider `Cc1sc(C(=O)NC2COC2)cc1-n1cc(NC(=O)Nc2c(F)cccc2Cl)cn1` [Compound 27, 4-(4-(3-(2-chloro-6-fluorophenyl)ureido)-1H-pyrazol-1-yl)-5-methyl-N-(oxetan-3-yl)thiophene-2-carboxamide], for which the remaining activity at 10 µM in [1] (10 uM) amounted to 113%; in [2] (10 uM), 108%; in [3] (10 uM) it was 83.7%; in assay [4] (10 uM), 94.4%; in assay [5] (10 uM), 97.6%; in [6] (10 uM), 97.6%. For the same compound, the remaining activity at 10 µM in assay [7] (10 uM) turned out to be 102%; in assay [8] (10 uM) it was 93.7%; in [9] (10 uM) it was 99.7%; in assay [10] (10 uM) it was 91.1%.

As for `O=C(Nc1cnn(-c2csc(C(=O)NC3COC3)c2)c1)Nc1c(F)cccc1Cl` [Compound 25, 4-(4-(3-(2-chloro-6-fluorophenyl)ureido)-1H-pyrazol-1-yl)-N-(oxetan-3-yl)thiophene-2-carboxamide], the remaining activity at 5 µM was 94% in [1]; 95.7% in assay [2]; 88.9% in assay [3]; 92.8% in [4]; 94.7% in assay [5]; 104% in assay [6]. Moreover, the remaining activity at 5 µM in assay [7] is 91.8%; in assay [8], 96.2%; in [9], 99.4%; in assay [10] it was 91.9%.

For the compound `O=C(Nc1cnn(-c2csc(C(=O)NC3COC3)c2)c1)Nc1ccccc1Cl` [Compound 17, 4-(4-(3-(2-chlorophenyl)ureido)-1H-pyrazol-1-yl)-N-(oxetan-3-yl)thiophene-2-carboxamide], the remaining activity at 5 µM in [1] was 96.8%; in [2] it was 105%; in [3] it was 98.4%; in assay [4], 107%; in assay [5], 118%; in assay [6], 107%. Besides, the remaining activity at 5 µM stood at 99.5% in assay [7], 94.6% in assay [8], 100% in [9] and 96.3% in assay [10].
